In paper PMC12446468, “Anti-inflammatory and cytotoxic assessment of flavonoids isolated from Viola odorata flowers with computer-guided docking study” (Scientific Reports, 2025):
Marks after values point to notes of the source that are not given here.

Legend:
COX-1 = target: T1, COX-1 (Ovis aries, UniProt P05979); assay: COX-1 inhibition assay (Cayman COX kit); type: biochemical, ovine/human; conditions: mean ± SE, n = 3
T1 construct: purchased Cayman 560131
T1 sequence (P05979 25-600): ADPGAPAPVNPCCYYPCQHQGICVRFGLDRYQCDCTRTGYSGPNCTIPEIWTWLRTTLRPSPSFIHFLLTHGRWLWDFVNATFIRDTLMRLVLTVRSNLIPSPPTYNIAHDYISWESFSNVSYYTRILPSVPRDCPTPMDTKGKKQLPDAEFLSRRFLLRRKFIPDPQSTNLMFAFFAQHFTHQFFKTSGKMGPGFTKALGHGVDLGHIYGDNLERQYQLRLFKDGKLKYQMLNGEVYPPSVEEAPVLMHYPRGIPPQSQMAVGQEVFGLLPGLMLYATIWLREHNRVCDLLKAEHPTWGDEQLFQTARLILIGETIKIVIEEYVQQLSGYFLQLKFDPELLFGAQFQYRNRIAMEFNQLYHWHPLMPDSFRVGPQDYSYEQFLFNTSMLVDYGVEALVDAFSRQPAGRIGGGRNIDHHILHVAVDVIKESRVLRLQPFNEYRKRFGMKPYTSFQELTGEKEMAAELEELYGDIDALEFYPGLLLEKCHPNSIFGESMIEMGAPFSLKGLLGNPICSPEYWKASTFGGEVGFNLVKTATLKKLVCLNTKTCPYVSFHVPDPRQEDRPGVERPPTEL
Description: (§1) The requirements for High-Performance Liquid Chromatography (HPLC) and all compounds tested were of the utmost analytical purity. […] COX-1 and COX-2 (ovine/human), as well as the 5-LOX enzyme (human recombinant) were obtained from Sigma-Aldrich. Dulbecco’s Modified Eagle’s Medium (DMEM), along with penicillin/streptomycin and L-glutamine, were acquired from Gibco BRL, California, USA. Fetal bovine serum (FBS) and 3-(4, 5-dimethylthiazol-2-yl)-2, 5-[…] (MTT) were supplied by Sigma-Aldrich, St. Louis, Missouri, USA.
(§2) The methanolic extract of V. odorata flowers and isolated flavonoids were subjected to an in vitro anti-inflammatory assessment by inhibiting two isoenzymes, cyclooxygenase COX-1 and COX-2 (ovine/human), as well as the 5-LOX enzyme (human recombinant).

COX-2 = target: T2, COX-2 (Homo sapiens, UniProt P35354); assay: COX-2 inhibition assay (Cayman COX kit); type: biochemical, ovine/human
T2 construct: purchased Cayman 560131
T2 sequence (P35354 18-604): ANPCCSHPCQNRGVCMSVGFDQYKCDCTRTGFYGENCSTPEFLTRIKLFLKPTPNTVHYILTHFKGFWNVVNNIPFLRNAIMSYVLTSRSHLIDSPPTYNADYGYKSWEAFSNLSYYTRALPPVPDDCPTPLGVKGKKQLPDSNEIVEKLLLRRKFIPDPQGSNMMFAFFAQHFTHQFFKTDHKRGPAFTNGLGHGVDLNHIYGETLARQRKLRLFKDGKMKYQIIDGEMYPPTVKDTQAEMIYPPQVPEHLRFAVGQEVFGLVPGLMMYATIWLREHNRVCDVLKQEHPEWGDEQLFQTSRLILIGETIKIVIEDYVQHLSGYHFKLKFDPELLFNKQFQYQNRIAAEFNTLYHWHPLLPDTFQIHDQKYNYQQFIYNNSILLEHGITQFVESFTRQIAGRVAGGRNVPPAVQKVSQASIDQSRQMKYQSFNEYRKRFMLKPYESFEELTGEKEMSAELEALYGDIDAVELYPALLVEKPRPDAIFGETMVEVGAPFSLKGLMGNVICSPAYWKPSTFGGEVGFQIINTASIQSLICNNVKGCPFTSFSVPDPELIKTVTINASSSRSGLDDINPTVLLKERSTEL
Description: as §1, §2

[1] = target: T3, 5-LOX enzyme (human recombinant) (Homo sapiens, UniProt P09917); assay: 5-lipoxygenase inhibition assay (5-LOX kit); type: biochemical; conditions: mean ± SE, n = 3
T3 construct: purchased Sigma-Aldrich 437996
T3 sequence (P09917 1-674): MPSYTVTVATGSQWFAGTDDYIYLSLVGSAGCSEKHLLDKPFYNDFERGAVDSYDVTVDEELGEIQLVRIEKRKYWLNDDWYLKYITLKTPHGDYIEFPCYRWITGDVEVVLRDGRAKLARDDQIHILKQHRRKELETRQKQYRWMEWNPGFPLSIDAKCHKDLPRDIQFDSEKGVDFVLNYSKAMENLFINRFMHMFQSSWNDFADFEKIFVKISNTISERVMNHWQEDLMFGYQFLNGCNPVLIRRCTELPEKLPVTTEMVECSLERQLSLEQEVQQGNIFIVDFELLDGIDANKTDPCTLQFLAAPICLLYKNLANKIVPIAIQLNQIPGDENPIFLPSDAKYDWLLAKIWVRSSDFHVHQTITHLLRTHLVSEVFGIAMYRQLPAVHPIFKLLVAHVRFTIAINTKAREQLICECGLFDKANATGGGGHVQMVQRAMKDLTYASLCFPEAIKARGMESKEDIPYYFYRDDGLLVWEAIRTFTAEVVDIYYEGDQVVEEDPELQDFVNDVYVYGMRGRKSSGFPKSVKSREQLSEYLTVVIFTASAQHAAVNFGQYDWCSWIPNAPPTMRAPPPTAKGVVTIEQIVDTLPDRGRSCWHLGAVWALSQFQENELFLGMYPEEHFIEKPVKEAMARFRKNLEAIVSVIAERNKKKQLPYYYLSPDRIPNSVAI
Description: as §1, §2

[2] = system: hepatocellular carcinoma (HepG2); assay: MTT cytotoxicity assay, HepG2; type: cell-based, human; conditions: for % Cell viability / % Cytotoxicity: 48 h
Procedure: (§3) The assessment of cytotoxicity for the methanolic extract and isolated flavonoids was performed under controlled and sterile conditions within a Class II A2 Laminar flow biosafety cabinet. The carcinoma cell lines used in this study was obtained from Nawah Scientific Inc. (Cairo, Egypt). The cells were cultured in Dulbecco’s Modified Eagle’s Medium, enriched with 10% heat-inactivated fetal bovine serum, 100 U/ml penicillin, and 100 μg/ml streptomycin sulfate, maintained at […] in humidified incubators with 5% CO2. Upon reaching approximately 80% confluence, the cells were subcultured using a trypsin–EDTA solution. Harvesting occurred during the logarithmic growth phase. The methanolic extract and isolated flavonoids were dissolved in DMSO and stored at − 20 °C. For each experimental trial, the stock solutions were mixed with the culture medium to obtain the required final concentrations.
(§4) The effectiveness of the extract was compared to that of the reference drug, Doxorubicin. The percentage of cell viability was calculated by taking the ratio of the absorbance of the plant extract to that of the control, multiplied by 100. Furthermore, the IC50 value of the plant extract was determined using Sigma Plot software version 11 (Spw.exe) (https://sigmaplot.software.informer.com/11.0/).

[3] = system: human colonic epithelial cells (Caco-2); assay: MTT cytotoxicity assay, Caco-2; type: cell-based; conditions: for % Cell viability / % Cytotoxicity: 48 h
Procedure: as §3, §4

[4] = system: human colorectal carcinoma cells (HTC-116); assay: MTT cytotoxicity assay, HTC-116; type: cell-based; conditions: for % Cell viability / % Cytotoxicity: 48 h
Procedure: as §3, §4

SMILES: O=c1cc(-c2ccc(O)c(O)c2)oc2cc(O[C@@H]3O[C@H](CO)[C@@H](O)[C@H](O)[C@H]3O)cc(O)c12 [Luteolin 7-O-glucoside, luteolin 7-O-glucoside]
- IC50 values COX-1 (COX-1): 0.982 ± 0.09^c ug/ml
- IC50 values COX-2 (COX-2; mean ± SE, n = 3): 1.305 ± 0.14^b ug/ml
- Selectivity Index (COX-1/COX-2) (COX-2; ratio of IC50 COX-1 to IC50 COX-2): 0.75
- IC50 values 5-LOX [1]: 0.915 ± 0.21^ab ug/ml
- % Cell viability ([2]; HepG2, 6.25 ug/ml): 70.35%
- % Cytotoxicity ([2]; HepG2, 6.25 ug/ml): 29.65%
- % Cell viability ([2]; HepG2, 12.5 ug/ml): 63.99%
- % Cytotoxicity ([2]; HepG2, 12.5 ug/ml): 36.01%
- % Cell viability ([2]; HepG2, 25 ug/ml): 42.58%
- % Cytotoxicity ([2]; HepG2, 25 ug/ml): 57.42%
- % Cell viability ([2]; HepG2, 50 ug/ml): 28.52%
- % Cytotoxicity ([2]; HepG2, 50 ug/ml): 71.48%
- % Cell viability ([2]; HepG2, 100 ug/ml): 14.11%
- % Cytotoxicity ([2]; HepG2, 100 ug/ml): 85.89%
- IC50 ([2]; HepG2, 48 h): 28.23^c ug/ml
- % Cell viability ([3]; Caco-2, 6.25 ug/ml): 70.32%
- % Cytotoxicity ([3]; Caco-2, 6.25 ug/ml): 29.68%
- % Cell viability ([3]; Caco-2, 12.5 ug/ml): 60.35%
- % Cytotoxicity ([3]; Caco-2, 12.5 ug/ml): 39.65%
- % Cell viability ([3]; Caco-2, 25 ug/ml): 49.22%
- % Cytotoxicity ([3]; Caco-2, 25 ug/ml): 50.78%
- % Cell viability ([3]; Caco-2, 50 ug/ml): 31.01%
- % Cytotoxicity ([3]; Caco-2, 50 ug/ml): 68.99%
- % Cell viability ([3]; Caco-2, 100 ug/ml): 10.63%
- % Cytotoxicity ([3]; Caco-2, 100 ug/ml): 89.37%
- IC50 ([3]; Caco-2, 48 h): 29.42^c ug/ml
- % Cell viability ([4]; HTC-116, 6.25 ug/ml): 69.86%
- % Cytotoxicity ([4]; HTC-116, 6.25 ug/ml): 30.14%
- % Cell viability ([4]; HTC-116, 12.5 ug/ml): 59.38%
- % Cytotoxicity ([4]; HTC-116, 12.5 ug/ml): 40.62%
- % Cell viability ([4]; HTC-116, 25 ug/ml): 49.17%
- % Cytotoxicity ([4]; HTC-116, 25 ug/ml): 50.83%
- % Cell viability ([4]; HTC-116, 50 ug/ml): 34.03%
- % Cytotoxicity ([4]; HTC-116, 50 ug/ml): 65.97%
- % Cell viability ([4]; HTC-116, 100 ug/ml): 13.01%
- % Cytotoxicity ([4]; HTC-116, 100 ug/ml): 86.99%
- IC50 ([4]; HTC-116, 48 h): 30.17^c ug/ml
